In article PMC5775280, “Functional Characterization and Signaling Systems of Corazonin and Red Pigment Concentrating Hormone in the Green Shore Crab, Carcinus maenas” (Frontiers in Neuroscience, 2018):
Peptide text beside a SMILES is read from it.

Experiments:
[1] = target: T1, C. maenas RPCHR (red pigment concentrating hormone receptor) (Carcinus maenas, UniProt A0A2L0WQF2); test: Aequorin luminescence Ca2+ mobilization in CHO-K1-Aeq cells transiently expressing RPCHR; assay type: cell-based; conditions: CHO-K1-Aeq cells (without Gα16) transiently expressing RPCHR; luminescence response normalized to total Ca2+ response; dose response curves, means of n = 4
T1 sequence (A0A2L0WQF2 1-529): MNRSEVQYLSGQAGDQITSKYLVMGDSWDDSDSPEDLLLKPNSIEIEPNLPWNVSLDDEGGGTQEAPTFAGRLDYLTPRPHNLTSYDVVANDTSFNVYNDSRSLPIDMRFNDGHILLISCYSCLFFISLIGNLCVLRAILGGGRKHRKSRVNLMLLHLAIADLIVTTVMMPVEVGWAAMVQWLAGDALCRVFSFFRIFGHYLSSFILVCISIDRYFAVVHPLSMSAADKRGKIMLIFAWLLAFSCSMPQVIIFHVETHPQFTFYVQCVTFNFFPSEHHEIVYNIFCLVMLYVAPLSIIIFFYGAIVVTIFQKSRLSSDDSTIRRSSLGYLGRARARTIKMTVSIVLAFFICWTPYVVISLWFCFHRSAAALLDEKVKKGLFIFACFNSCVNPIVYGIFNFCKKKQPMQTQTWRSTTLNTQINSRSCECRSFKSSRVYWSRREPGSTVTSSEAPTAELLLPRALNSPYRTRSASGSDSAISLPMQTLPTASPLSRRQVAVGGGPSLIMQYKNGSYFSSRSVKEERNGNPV
Procedure: (§1) Chinese hamster ovary (CHO-K1) cells containing stably expressed apoaequorin (Perkin Elmer, Boston, MA) and either Gα16 or Gq subunit (control cells) were cultured in Dulbecco's Modified Eagle Medium (DMEM) F-12 Nutrient Mixture GlutaMax (Gibco®) supplemented with 10% fetal bovine serum (Gibco®). Cells were maintained in vented T75 flasks at 37°C in 5% CO2.
(§2) Cells grown in a monolayer to approximately 60% confluency in T75 flasks were transfected with pcDNA3.1 constructs using FugeneHD (Promega) according to the manufacturer's recommendations. Briefly, transfection medium was prepared by combining 800 μl Opti-MEM® (Gibco) with 10 μg vector and 30 μl Fugene HD in a 2 ml polystyrene tube and incubated for 10 min at room temperature. The transfection reagent was added to 5 ml of fresh culture media and the cells incubated overnight at 37°C in 5% CO2. After 24 h, an additional 10 ml of culture media were added to the flasks and the cells returned to 37°C at 5% CO2 for a further overnight incubation.
(§3) On the day of the assay, cells were detached from the culture flask by incubating for 12 min in 5 ml 0.2% EDTA in PBS. The cells were washed with 10 ml DMEM clear DMEM/F-12 containing L-glutamine, 15 mM HEPES and moved to 50 ml centrifuge tubes. Cells were centrifuged for 5 min at 260 g and resuspended to a concentration of 5 × 10^6 cells ml^−1 in 0.2 μm filtered BSA medium (DMEM/F-12 containing L-glutamine, 15 mM HEPES + 0.1% BSA). Coelenterazine h (Invitrogen, Paisley, UK) was added to a concentration of 5 μM and the cells incubated for 4 h in the dark at room temperature whilst gently rocking. The cells were diluted 10-fold and incubated for a further 60 min before use in the assay. Synthetic peptides (GeneCust, Dudelange, Luxembourg) were reconstituted in 30% acetonitrile, dried in small aliquots by vacuum centrifugation and subsequently redissolved in BSA medium. Fifty microliter aliquots were then dispensed into quadruplicate wells of a white 96-well plate (OptiPlate, PerkinElmer). Cell suspensions were gently stirred and injected in 50 μl aliquots into each well using a Mithras LB 940 microplate reader (Berthold Technologies, Bad-Wildbad, Germany) and light emission (Ca^2+ response) recorded for 30 s. Cells were then lysed by injection of 0.3% Triton-X in BSA medium and light emission recorded for a further 10 s to measure total Ca^2+ response. BSA medium was used for blank measurements (6 replicate wells per plate) and mock transfection with empty vectors carried out for negative controls. Data was analyzed using MikroWin v5.18 (Mikrotek Laborsysteme GmbH) and SigmaPlot v.13 (Systat Software, Inc.). Receptor response was normalized against total Ca^2+ response.

[2] = Hemolymph triglyceride levels after peptide injection; assay type: in vivo, Carcinus maenas; conditions: lipid mobilization bioassay
[3] = system: red and black epidermal chromatophores, dactyl of the 5th walking leg; test: Chromatophore pigment migration bioassay in vivo; set-up: species or system Carcinus maenas; conditions: injection after 40 min dispersion with 5 pmol PDH, 0.1–100 pmol/crab for RPCH or AKH, 100 pmol/crab for CRZ or ACP, scored 5 and 20 min after injection
Procedure: Pigmentary effector activity of […], Locusta migratoria AKH-I, and ACP were measured in vivo, using small (15-20 mm carapace width) C. maenas. Crabs were firstly adapted to a white background, light intensity 300 lx for 1 h. Pigment dispersion of red and black chromatophores in the […] of the 5th walking leg were microscopically observed and indices of dispersion scored according to Hogben and Slome ([1931]). Red and black chromatophores were firstly fully dispersed by injection of 5 pmol C. maenas pigment dispersing hormone ([…]) in 10 μl saline into the hypobranchial sinus, using hand-drawn glass microcapillaries. Chromatophore dispersion indices were scored at 0, 20, 40 min. Peptides were then injected and chromatophores subsequently scored after 5 and 20 min.

[4] = target: T2, C. maenas CRZR (corazonin receptor) (Carcinus maenas, UniProt A0A2L0WQE5); test: Aequorin luminescence Ca2+ mobilization in CHO-K1-Aeq cells transiently expressing CRZR; assay type: cell-based
T2 sequence (A0A2L0WQE5 1-617): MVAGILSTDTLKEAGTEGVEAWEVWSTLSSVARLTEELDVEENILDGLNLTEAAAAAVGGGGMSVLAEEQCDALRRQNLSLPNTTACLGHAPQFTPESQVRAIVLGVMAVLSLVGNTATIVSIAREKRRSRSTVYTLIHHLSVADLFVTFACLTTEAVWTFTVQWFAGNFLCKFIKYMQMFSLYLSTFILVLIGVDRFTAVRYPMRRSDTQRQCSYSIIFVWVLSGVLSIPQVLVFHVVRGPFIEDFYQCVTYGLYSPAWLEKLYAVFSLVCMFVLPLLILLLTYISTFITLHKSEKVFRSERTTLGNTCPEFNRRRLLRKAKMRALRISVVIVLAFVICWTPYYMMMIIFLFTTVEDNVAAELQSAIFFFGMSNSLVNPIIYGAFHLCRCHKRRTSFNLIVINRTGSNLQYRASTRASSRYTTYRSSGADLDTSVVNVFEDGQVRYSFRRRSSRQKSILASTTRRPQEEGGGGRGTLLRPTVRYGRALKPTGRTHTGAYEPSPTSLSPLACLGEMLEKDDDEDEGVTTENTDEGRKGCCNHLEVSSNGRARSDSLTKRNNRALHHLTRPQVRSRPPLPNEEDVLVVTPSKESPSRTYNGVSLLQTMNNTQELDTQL
Procedure: as §1, §2, §3

## CC(C)C[C@H](NC(=O)[C@@H]1CCC(=O)N1)C(=O)N[C@@H](CC(N)=O)C(=O)N[C@@H](Cc1ccccc1)C(=O)N[C@@H](CO)C(=O)N1CCC[C@H]1C(=O)NCC(=O)N[C@@H](Cc1c[nH]c2ccccc12)C(N)=O [RPCH] (HELM PEPTIDE1{[Glp].L.N.F.S.P.G.W.[am]}$$$$V2.0)
[1]
  EC50: 0.02 nM
[2]
  effect on hemolymph diacylglycerol levels: completely without effect
[3]
  pigment migration (concentration) in red and black epidermal chromatophores: dose-dependent concentration of pigment in the red (but not the black) chromatophores
[4]; 0.6–20 μM
  binding to CRZR at extremely high concentrations: some dose-dependent binding
[4]; CHO-K1-Aeq cells (without Gα16) transiently expressing CRZR, luminescence response normalized to total Ca2+ response, dose response curves, means of n = 4
  EC50: > 20000 nM
